# Source: patent publication US8334298B2, “Treatment or prevention of ovarian hyperstimulation syndrome (OHSS) using a dopamine agonist” (Ferring International Center S.A., priority 2005, dated 2012)
# “And” between values parts separate entries of the source, which are not always exact repeats. Equal values may be shown once.
# Key:
# [1] = tested on: patient with pituitary adenoma and OHSS; conditions: cabergoline 0.5 mg twice per week for three weeks; cited from earlier work
# OHSS rats = assay: Dose response of quinagolide on vascular permeability in OHSS rats (Example 4); assay type: in vivo, Wistar rats; conditions: cabergoline 150 ug/kg oral (positive control); single rat; 48-56 h after hCG; listed as Cb
# Procedure: Inducing OHSS manifestations. A total of 96 female immature Wistar rats (Harlan Iberica, Sant Feliu de Codina, Barcelona, SPAIN), weighing from 42-48 grams at the beginning of these experiments (day 22), were used to carry out the studies disclosed in Examples 4 and 5. They were injected subcutaneously (s.c) with 10 IU of Pregnant Mare's Serum Gonadotropin (PMSG) (Sigma) for 4 consecutive days (days 22-25), followed by administered intraperitoneally (i.p.) with 30 IU of hCG on the fifth day (day 26) in order to induce OHSS clinical manifestations.
# Measuring vascular permeability (VP). VP was used as an index to estimate and compare the degree of development of the illness. VP was measured in all animals 48-56 hours after hCG administration, following methodology previously described (Gomez et al., supra). Briefly, 0.2 ml Evans Blue dye, 0.05 M, was injected through the femoral vein. After 30 minutes, the peritoneal cavity was irrigated with 5 ml saline, pH 6, 22° C., and massaged for 30 seconds to recover extravasated dye. The peritoneal fluid was recovered in 13 ml tubes containing 0.1 ml NaOH. The tubes were centrifuged at 900×g for 12 minutes to avoid protein interference. The supernatant was filtered through 0.22 um filters in order to eliminate ascitic protein/fibrin mucus which could interfere in the posterior measurements. Finally the absorbance of the extravasated dye was measured at 595 nm using a spectrophotometer. Average and average deviations in each group (see below) were calculated. VP was expressed as μg extravasated Evans Blue dye/100 g body weight in each animal.
# A total of 70 rats were used for this study. All 70 rats were administered PMSG/hCG to induce OHSS symptoms, as described above. Quinagolide (batch no. 1010003004; supplied by Ferring Labs) was administered to 56 rats. The 56 rats that received quinagolide were used as a dose response test group. […] Cabergoline (Dostinex®) was administered to 6 rats as a positive control. The specific details of the dosing regimen for each group is as follows:
# Vehicle control group (quinagolide 0 μg/kg) (n=8). Eight rats were implanted with prolactin placebo pellets, 5 days release, between 10:00 to 11:00 on day 26, just following hCG injection (see General Procedures, above). Six hours after pellet implantation, the rats in this group were orally administered vehicle solution (1:6 alcohol in water mixture) (without quinagolide). They received another oral vehicle administration of vehicle solution 24 hours later. Experimental groups (quinagolide at 0.1, 0.3, 1, 3, 10, 25, 50 μg/kg/day to 7 test groups of rats) (n=8 in each test group). The rats in these groups were implanted with prolactin pellets, 5 days release, between 10:00 to 11:00 on day 26, just following hCG injection (see General Procedures, above). […] In this manner, the desired 0.1, 0.3, 1, 3, 10, 25, 50 μg/kg doses to be assayed were achieved. Twenty four hours later, the rats in this group were administered with another dose of the same amounts of quinagolide. Positive (cabergoline) control group (n=6). These six rats were implanted with prolactin pellets, 5 days release, between 10:00 to 11:00 .m on day 26, just following hCG injection. […] Twenty four hours later, the rats in this group were administered with another dose of the same amount of cabergoline. […] Reconstitution and dilution process to reach appropriate quinagolide doses for oral administration. Appropriate doses were prepared fresh just prior to being administered (on day 26). A single quinagolide vial, containing approximately 2.30-2.30 mg quinagolide, was employed for each single set of animals. For each solution, approximately 2.30-2.30 mg quinagolide was diluted in a vehicle solution (1:6 alcohol:water mixture) to achieve a stock concentration of 100 μg quinagolide per ml solution. […]
structure (smiles),measurement,setting,value
"C=CCN1C[C@H](C(=O)N(CCCN(C)C)C(=O)NCC)C[C@@H]2c3cccc4[nH]cc(c34)C[C@H]21 [Cabergoline, cabergoline]",prolactin levels,[1],normalized prolactin levels
same,Absorbance at 595 nm,OHSS rats,0.356 and 0.034 and 0.1 (2×) and 0.293
same,μg EB per 100 g body weight,OHSS rats,21.56 μg EB per 100 g body weight and 2.118 μg EB per 100 g body weight and 6.507 μg EB per 100 g body weight and 6.229 μg EB per 100 g body weight and 17.99 μg EB per 100 g body weight
same,μg Evans Blue (Abs * 4360),OHSS rats,1552.16 μg and 148.24 μg and 436 μg (2×) and 1277.48 μg
